Measurements published in patent US10632208B2, “Peptide-mediated drug delivery across epithelial barrier” (Purdue Research Foundation, priority 2017, dated 2020).
“Also recorded” adds a separate entry of the source.

Legend:
[1] = tested on: occludin, claudin-1 and E-cadherin; assay: Immunoblot of junctional proteins in detergent-insoluble fraction of Caco-2 cells; type: cell-based, human
Procedure: (§1) To extract the proteins from Caco-2 cells, cells were seeded in 6-well plates for 14-21 days. Following treatment, the cells were washed, scraped from the bottom of 6-well plates, suspended in PBS, and pelleted by centrifugation. Total protein from Caco-2 cells was extracted using the M-PER Extraction Kit (Thermo Fisher Scientific). Detergent-insoluble (membrane) and detergent-soluble (cytosolic) proteins were isolated using a Mem-Per Eukaryotic Protein Extraction Kit (Thermo Fisher Scientific) while the cytosolic and nuclear proteins were extracted using NE-PER Extraction Reagent (Thermo Fisher Scientific). To extract proteins from ileal epithelial cells, the epithelial cell fraction from ileal tissues were isolated as described above and the detergent-insoluble and the detergent-soluble proteins were isolated using a Mem-Per Eukaryotic Protein Extraction Kit.
(§2) To extract total protein from intact bacterial cells, sample solvent buffer and sonication (3 cycles of 20 min each) were used. […] The protein concentrations were determined by BCA assay (Thermo Fisher Scientific), and separated on SDS-PAGE gels (10-12.5% polyacrylamide) and electro-transferred to polyvinylidene difluoride (PVDF) membrane (Millipore). […] To compare the reaction intensities, the average band densities were determined using Quantity One software (Bio-Rad). […]

MLCK = assay: Immunoblot of MLCK and P-MLC in whole-cell Caco-2 lysates; type: cell-based, human; conditions: pre-treatment prior to infection with WT strain, relative to uninfected cells
Procedure: as §1, §2

L. monocytogenes [2] = assay: Intracellular invasion of L. monocytogenes in Caco-2 cells (gentamicin protection); type: cell-based, Listeria monocytogenes
Procedure: For bacterial invasion analysis, monolayers were washed with PBS after 1 h of infection (MOI, ˜50) and incubated with DMEM-FBS (10%) containing gentamicin (50 μg/mL) for 1 h. Caco-2 cells were lysed with 0.1% Triton X, and the internalized bacteria were enumerated by plating.

Caco-2 cell monolayers = assay: Transepithelial electrical resistance (TEER) of Caco-2 monolayers on Transwell inserts; type: cell-based, human; conditions: for effect on Caco-2 TEER in LAP-treated cells: BAY 10 μM or PDTC 100 μM
NF-κB(p65) = assay: Immunoblot of NF-κB activation in Caco-2 cytoplasmic and nuclear extracts; type: cell-based, human; conditions: BAY 10 μM or PDTC 100 μM, Caco-2 cells
Procedure: as §1
To extract total protein from intact bacterial cells, sample solvent buffer and sonication (3 cycles of […]) were used. To isolate the cell wall-associated proteins bacterial pellets were resuspended in 0.5 ml protein extraction buffer (0.5% SDS, 10 mM Tris at pH 6.9), and incubated at 37° C. for 30 min with agitation. The samples were centrifuged (14,000×g, 10 min, 4° C.), and the supernatants (containing cell wall-associated proteins) were retained. Halt proteases and phosphatase inhibitors (Thermo Fisher Scientific) were used during all of the protein extraction procedures. The protein concentrations were determined by BCA assay (Thermo Fisher Scientific), and separated on SDS-PAGE gels (10-12.5% polyacrylamide) and electro-transferred to polyvinylidene difluoride (PVDF) membrane (Millipore). The membranes were then blocked in 5% nonfat dry milk (NFDM) in 0.1 M Tris-buffered saline, pH 7.5 (TBS) containing 0.1% Tween 20 (TBST) for at least 1 h. All of the primary antibodies were diluted in 5% bovine serum albumin (BSA) or 5% NFDM in TBST and incubated overnight. Secondary antibodies (1:2000 in 5% NFDM in TBST) incubated for 1 h at 37° C., and a chemiluminescence method was performed using LumiGLO reagent (Cell Signaling). The membranes were exposed to X-ray films or visualized using the Chemi-Doc XRS system (Bio-Rad). To immunoprobe the same membrane with another antibody, the originally bound antibodies from the membranes were removed by incubating the membranes in Restore Western Blot Stripping Buffer (Thermo Fisher Scientific) according to the manufacturer's protocol. To compare the reaction intensities, the average band densities were determined using Quantity One software (Bio-Rad). Densitometry reports represent the mean±SEM after normalization to the loading control and is presented as % change of protein with the average for untreated cells (control) set at 100%. Immunoblots and densitometric reports are representative of 2-3 independent experiments.

L. monocytogenes [3] = assay: Translocation of L. monocytogenes through polarized Caco-2 monolayers on Transwell filter-inserts; type: cell-based, Listeria monocytogenes; conditions: for effect on translocation of the lap strain: 30 min pretreatment, BAY 10 μM or PDTC 100 μM
Procedure: Caco-2 cells were grown as monolayers on Transwell inserts with 3.0 μm pores (Corning-Costar) for up to 14-21 days. TEER was measured to monitor the monolayer integrity (Millicells Voltmeter, Millipore). A TEER value of at least 200 Ω/cm^2 (±10) was used as the basal value to monitor the monolayer integrity. Bacterial cells were washed three times in PBS and resuspended in DMEM-FBS (10%) at a MOI of ˜50 and were added to the apical side of the Transwell system, and after 2 h incubation period at 37° C. in 5% CO2, the liquid was collected from the basal well, and then translocated bacteria were enumerated by plating (Burkholder and Bhunia, 2010). For analysis of FD4 flux, non-metabolizable 4 kDa FITC-labeled dextran (FD4; 5 mg/ml, Sigma-Aldrich) was added with bacteria (MOI, ˜50) resuspended in DMEM-FBS (10%) and added to the apical side. After 2 h incubation at 37° C. in 5% CO2, the liquid was collected from the basal well and fluorescence was measured (Em: 485 nm; Ex: 520 nm; Spectramax, Molecular Devices). For pharmacological inhibition treatments, PDTC (100 μM for 30 min pre-treatment; R&D Systems), Bay-11-7085 (10 μM for 30 min pre-treatment; Sigma-Aldrich), ML-9 (20 μM for 30 min pre-treatment; Sigma-Aldrich), PIK (150 μM, 30 min-pre-treatment and kept during 2-h infection) (Zolotarevsky et al., 2002), and Cytochalasin D (1 μg/mL for 1 h; Sigma-Aldrich) were used separately.
For re-association of externally added LAP to the lap^− mutant, bacteria were harvested from 1 ml of overnight grown culture, and the pellet was washed three times in PBS before the addition of 1 or 2 μg/mL of purified LAP. The mixture was incubated for 30 min at 30° C. with continuous shaking and then pelleted, washed five times in the PBS, resuspended in DMEM, and used in the aforementioned translocation assay.

CC(C)(C)c1ccc(S(=O)(=O)/C=C/C#N)cc1 [BAY, BAY 11-7085]
effect of the inhibitor alone on expression of junctional proteins [1]: no effect | effect on L. monocytogenes-induced redistribution of occludin, claudin-1 and E-cadherin ([1]; PIK 150 μM or BAY 10 μM, 30 min, prior to WT infection (MOI 50, 45 min)): prevented; also recorded: Restoration | levels of MLCK and P-MLC in whole cell lysate (MLCK): unchanged levels | effect on intracellular invasion of the WT strain (L. monocytogenes [2]): did not affect | effect on Caco-2 TEER in LAP-treated cells (Caco-2 cell monolayers): restored | effect on LAP-mediated NF-κB activation (NF-κB(p65)): inhibited | effect on translocation of the lap strain (L. monocytogenes [3]): no apparent effect

C=C1[C@@H](C)[C@H]2[C@H](Cc3ccccc3)NC(=O)[C@]23[C@H](OC(C)=O)/C=C/[C@@](C)(O)C(=O)[C@@H](C)C/C=C/[C@H]3[C@@H]1O [Cytochalasin D]
effect on intracellular invasion of the WT strain (L. monocytogenes [2]): low | effect of the inhibitor alone on Caco-2 TEER (Caco-2 cell monolayers): very low | increase of translocation of WT (L. monocytogenes [3]; cytochalasin D 1 μg/mL for 1 h): approximately 2.5 fold

O=S(=O)(c1cccc2c(Cl)cccc12)N1CCCNCC1 [ML-9]
effect on intracellular invasion of the WT strain (L. monocytogenes [2]): none of these inhibitors, affected the intracellular invasion capabilities | effect on translocation of WT and ΔinlA strains (L. monocytogenes [3]; PIK 150 μM or ML-9 20 μM, MOI 50): significantly reduced

S=C(S)N1CCCC1 [PDTC, pyrrolidine dithiocarbamate]
effect on intracellular invasion of the WT strain (L. monocytogenes [2]): did not affect | effect on Caco-2 TEER in LAP-treated cells (Caco-2 cell monolayers): restored | effect of the inhibitor alone on Caco-2 TEER (Caco-2 cell monolayers): did not affect | effect on LAP-mediated NF-κB activation (NF-κB(p65)): inhibited | effect on translocation of the lap strain (L. monocytogenes [3]): no apparent effect
